Data on 23 molecules can be found in patent publication US10604524B2, “Pyrropyrimidine compounds as MNKs inhibitors” (LIFEARC, priority 2015, dated 2020).

The target of assay [1] is Full-length human MNK1 (Homo sapiens, UniProt Q9BUB5, T385D). Nature of the assay: MNK1 biochemical IC50 assay (Caliper mobility shift).
In assay [2] the target is Full-length human MNK2 (Homo sapiens, UniProt Q9HBH9, T379D). Description: MNK2 biochemical IC50 assay (Caliper mobility shift).
Assay [3] has as its system phosphorylation of eIF4E at ser209 in MV4.11 cell line. Description: cells. The format is cell-based. To be noted: Homo sapiens; MV4.11 cells, 1.5 hr compound incubation, average of at least 2 independent experiments; read-out: plc50 elF4E (converted). The protocol:
MNK activity in cells was measured by monitoring the phosphorylation of eIF4E at ser209, the known endogenous substrate of MNK1/2, in cell lysates. […] The assay detection is based on the formation of sandwich antibody complexes coupled to donor and acceptor beads. Excitation at 680 nm causes the transfer of a singlet oxygen species between donor and acceptor beads when they are in close proximity by binding to the analyte […], which results in the emission of light at 520-620 nm.
Cells were then lysed and the Aphascreen Surefire protocol followed according to manufacturer's recommendations. 8 ul Acceptor beads (1:50 dilution in kit activation buffer) was added to lysate, shaken 150 rpm for 2 min and incubated for 1.5 hr at room temperature. 3 ul Donor beads (1:20 dilution in kit dilution buffer) were then added, shaken 150 rpm for 2 min and incubated for a further 1.5 hr at room temperature after which the plates were read on Pherastar FS using Alphascreen optic module.
Data were normalised relative to untreated DMSO only controls and curves repeated in duplicate within experiments. Data reported are averages of at least 2 independent experiments.

Chain of Full-length human MNK1 (Q9BUB5 1-424 isoform Q9BUB5-2 T344D): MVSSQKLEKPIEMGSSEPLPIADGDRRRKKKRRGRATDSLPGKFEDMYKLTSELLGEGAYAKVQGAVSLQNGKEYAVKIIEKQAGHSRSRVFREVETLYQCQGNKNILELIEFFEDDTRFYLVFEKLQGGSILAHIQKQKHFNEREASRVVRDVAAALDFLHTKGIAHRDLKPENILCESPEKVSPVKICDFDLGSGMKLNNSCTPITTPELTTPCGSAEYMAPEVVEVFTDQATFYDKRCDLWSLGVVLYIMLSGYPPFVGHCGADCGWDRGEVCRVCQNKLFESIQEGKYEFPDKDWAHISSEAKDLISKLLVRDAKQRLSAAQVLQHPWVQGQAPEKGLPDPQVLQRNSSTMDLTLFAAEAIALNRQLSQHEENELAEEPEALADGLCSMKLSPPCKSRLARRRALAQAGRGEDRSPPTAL
Chain of Full-length human MNK2 (Q9HBH9 whole entry T379D): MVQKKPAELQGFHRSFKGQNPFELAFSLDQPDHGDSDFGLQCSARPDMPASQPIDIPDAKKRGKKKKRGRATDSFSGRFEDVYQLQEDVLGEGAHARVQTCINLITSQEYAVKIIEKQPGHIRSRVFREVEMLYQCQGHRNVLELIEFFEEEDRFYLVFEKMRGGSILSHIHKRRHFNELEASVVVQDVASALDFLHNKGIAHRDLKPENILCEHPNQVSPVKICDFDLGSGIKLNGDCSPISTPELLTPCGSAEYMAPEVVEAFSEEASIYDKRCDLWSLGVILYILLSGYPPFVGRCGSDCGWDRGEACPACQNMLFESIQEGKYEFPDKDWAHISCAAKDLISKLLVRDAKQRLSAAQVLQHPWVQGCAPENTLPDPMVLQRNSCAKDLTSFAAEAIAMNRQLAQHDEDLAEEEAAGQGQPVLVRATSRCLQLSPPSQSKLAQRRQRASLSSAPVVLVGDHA

Regarding `CC(C)Oc1cc(F)ccc1Nc1ncnc2cc(C(=O)NCC3CCNCC3)n(C)c12` [Example 41, 4-{[4-Fluoro-2-(propan-2-yloxy)phonyl]amino}-5-methyl-N-(piperidin-4-ylmethyl)-5H-pyrrolo[3,2-d]pyrimidine-6-carboxamide], the IC50 in assay [1] and in assay [2] was 39.8 nM throughout.
For `COc1ccc(Nc2ncnc3ccn(C)c23)c(OC(C)C)c1` [Example 10, N-(2-isopropoxy-4-methoxy-phenyl)-5-methyl-pyrrolo[3,2-d]pyrimidin-4-amine], the IC50 in assay [3] is 200 nM; in assay [1], 10000 nM; in assay [2], 1260 nM.
Consider `Cn1ccc2ncnc(Nc3ccc(F)cc3OC3CCCC3)c21` [Example 25, N-[2-(cyclopentyloxy)-4-fluorophenyl]-5-methyl-5H-pyrrolo[3,2-d]pyrimidin-4-amine], for which the IC50 in assay [1] was 126 nM; in assay [2], 31.6 nM.
Take `CN(C)CCCNC(=O)c1cc2ncnc(N3CCc4cc(F)ccc43)c2[nH]1` [Example 39, N-[3-(dimethylamino)propyl]-4-(5-fluoroindolin-1-yl)-5H-pyrrolo[3,2-d]pyrimidine-6-carboxamide]: the IC50 in assay [3] is 25.1 nM; in assay [1], 12.6 nM; in assay [2], 12.6 nM.
Take `CC(C)Oc1c(F)cccc1Nc1ncnc2ccn(C)c12` [Example 33, N-(3-fluoro-2-isopropoxy-phenyl)-5-methyl-pyrrolo[3,2-d]pyrimidin-4-amine]: the results for the IC50 in assay [3], in assay [1] and in assay [2] were 25.1 nM, 100 nM and 50.1 nM, respectively.
For `CC(C)Oc1cc(C#N)ccc1Nc1ncnc2ccn(C)c12` [Example 7, 3-Isopropoxy-4-[(5-methylpyrrolo[3,2-d]pyrimidin-4-yl)amino]benzonitrile], the IC50 in assay [3] was 31.6 nM; in assay [1], 50.1 nM; in assay [2], 25.1 nM.
For `Cn1ccc2ncnc(Nc3ccc(F)cc3OC(CF)CF)c21` [Example 11, N-[4-fluoro-2-[2-fluoro-1-(fluoromethyl)ethoxy]phenyl]-5-methyl-pyrrolo[3,2-d]pyrimidin-4-amine], the IC50 is 158 nM in assay [1] and 50.1 nM in assay [2].
As to `CO[C@@H]1CCCC[C@H]1Oc1cc(F)ccc1Nc1ncnc2ccn(C)c12` [Example 38, N-[4-fluoro-2-[(1R,2R)-2-methoxycyclohexoxy]phenyl]-5-methyl-pyrrolo[3,2-d]pyrimidin-4-amine], the results for the IC50 in assay [3], in assay [1] and in assay [2] were 39.8 nM, 2000 nM and 316 nM, respectively.
With `CC(C)Oc1cc(F)ccc1Nc1ncnc2cc(C(=O)NCCCN(C)C)[nH]c12` [Example 44, N-[3-(dimethylamino)propyl]-4-(4-fluoro-2-isopropoxy-anilino)-5H-pyrrolo[3,2-d]pyrimidine-6-carboxamide], the figures for the IC50 in assay [3], in assay [1] and in assay [2] were 63.1 nM, 79.4 nM and 63.1 nM, respectively.
For the molecule `CC(C)Oc1cc(F)ccc1Nc1ncnc2c(Cl)c(C(=O)NCCCN(C)C)n(C)c12` [Example 43, 7-Chloro-N-[3-(dimethylamino)propyl]-4-{[4-fluoro-2-(propan-2-yloxy)phenyl]amino}-5-methyl-5H-pyrrolo[3,2-d]pyrimidine-6-carboxamide], the IC50 in assay [3] is 794 nM; in assay [1], 1260 nM; in assay [2], 1000 nM.
`CC(C)Oc1ccccc1Nc1ncnc2ccn(C)c12` [Example 28, N-(2-isopropoxyphenyl)-5-methyl-pyrrolo[3,2-d]pyrimidin-4-amine]: the IC50 in assay [3] is 39.8 nM; in assay [1], 398 nM; in assay [2], 158 nM.
Taken in the same sequence, the figures for `CC(C)Oc1nc(Cl)ccc1Nc1ncnc2ccn(C)c12` [Example 6, N-(6-chloro-2-isopropoxy-3-pyridyl)-5-methyl-pyrrolo[3,2-d]pyrimidin-4-amine] were 63.1 nM, 251 nM and 63.1 nM.
In the case of `Cn1ccc2ncnc(Nc3ccc(F)cc3O[C@H]3CC[C@H](O)CC3)c21` [Example 12, 4-[5-fluoro-2-[(5-methylpyrrolo[3,2-d]pyrimidin-4-yl)amino]phenoxy]cyclohexanol], the IC50 in assay [3] is 15.8 nM; in assay [1], 200 nM; in assay [2], 79.4 nM.
As to `CC(C)Oc1cc(F)ccc1Nc1ncnc2ccn(C)c12` [Example 27, N-(4-fluoro-2-isopropoxy-phenyl)-5-methyl-pyrrolo[3,2-d]pyrimidin-4-amine], the IC50 in assay [3] was 20 nM; in assay [1], 126 nM; in assay [2] it was 50.1 nM.
`C[C@H](CF)Oc1cc(F)ccc1Nc1ncnc2ccn(C)c12` [Example 23, N-[4-fluoro-2-[(1R)-2-fluoro-1-methyl-ethoxy]phenyl]-5-methyl-pyrrolo[3,2-d]pyrimidin-4-amine]: the results for the IC50 in assay [3], in assay [1] and in assay [2] were 15.8 nM, 126 nM and 39.8 nM, respectively.
On to `CC(C)Oc1cc(F)ccc1Nc1ncnc2ccn(CCO)c12` [Example 4, 2-[4-(4-Fluoro-2-isopropoxy-anilino)pyrrolo[3,2-d]pyrimidin-5-yl]ethanol], for which the figures for the IC50 in assay [3], in assay [1] and in assay [2] were 251 nM, 2000 nM and 1260 nM, respectively.
As to `Cn1ccc2ncnc(Nc3ccc(F)cc3O[C@H]3CCOC3)c21` [Example 15, N-[4-fluoro-2-[(3S)-tetrahydrofuran-3-yl]oxy-phenyl]-5-methyl-pyrrolo[3,2-d]pyrimidin-4-amine], the results for the IC50 in assay [3], in assay [1] and in assay [2] were 31.6 nM, 398 nM and 158 nM, respectively.
For `Cn1ccc2ncnc(Nc3ccc(F)cc3OCC(F)F)c21` [Example 31, N-[2-(2,2-difluoroethoxy)-4-fluoro-phenyl]-5-methyl-pyrrolo[3,2-d]pyrimidin-4-amine], the IC50 was 50.1 nM in assay [3], 316 nM in assay [1] and 158 nM in assay [2].
As for `Cn1ccc2ncnc(Nc3ccc(F)cc3OC3CCC3)c21` [Example 17, N-[2-(cyclobutoxy)-4-fluoro-phenyl]-5-methyl-pyrrolo[3,2-d]pyrimidin-4-amine], the IC50 in assay [3] was 31.6 nM; in assay [1] it was 200 nM; in assay [2] it was 79.4 nM.
For the molecule `Fc1ccc2c(c1)CCN2c1ncnc2cc[nH]c12` [Example 46, 4-(5-Fluoroindolin-1-yl)-5H-pyrrolo[3,2-d]pyrimidine], the IC50 was 39.8 nM in assay [1] and 31.6 nM in assay [2].
For `Cn1ccc2ncnc(Nc3ccc4[nH]ncc4c3)c21` [Example 14, N-(1H-indazol-5-yl)-5-methyl-pyrrolo[3,2-d]pyrimidin-4-amine], the IC50 was 398 nM in assay [3], 251 nM in assay [1] and 398 nM in assay [2].
On to `Cn1ccc2ncnc(Nc3ccc(F)cc3O[C@H]3CCCOC3)c21` [Example 19, N-[4-fluoro-2-[(3S)-tetrahydropyran-3-yl]oxy-phenyl]-5-methyl-pyrrolo[3,2-d]pyrimidin-4-amine], for which the IC50 in assay [1] was 501 nM; in assay [2], 126 nM.
Consider `Cn1ccc2ncnc(Nc3ccc(F)cc3O[C@@H]3CCCOC3)c21` [Example 18, N-[4-fluoro-2-[(3R)-tetrahydropyran-3-yl]oxy-phenyl]-5-methyl-pyrrolo[3,2-d]pyrimidin-4-amine], for which the IC50 was 63.1 nM in assay [1] and 31.6 nM in assay [2].
